Data from the supplement of paper PMC10307832.

Columns and labels:
Experiment in all cases: relative viability (nuclei count vs DMSO), 5 days (fraction); higher = more cells survive
[1] = compound: CO[C@H]1C[C@@H]2CC[C@@H](C)[C@@](O)(O2)C(=O)C(=O)N2CCCC[C@H]2C(=O)O[C@H]([C@H](C)C[C@@H]2CC[C@@H](OCCO)[C@H](OC)C2)CC(=O)[C@H](C)/C=C(\C)[C@@H](O)[C@@H](OC)C(=O)[C@H](C)C[C@H](C)/C=C/C=C/C=C/1C [Everolimus] + COc1cccc2cc(-c3nc([C@H]4CC[C@H](C(=O)O)CC4)n4ncnc(N)c34)[nH]c12 [OSI-027] (partner 0.5 µM)
In short: (§1)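 Relative viability equals treated-well nuclei counts divided by vehicle-well nuclei counts. Counts came from 4× images of lung cancer cell lines grown in 1536-well plates for 5 days after pin-tool dosing on the day after seeding. Dosing used one drug alone or a fixed anchor-drug dose plus five library-drug doses (not always all listed) in √10 steps, and values are medians of duplicate plates.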

[2] = compound: CO[C@H]1C[C@@H]2CC[C@@H](C)[C@@](O)(O2)C(=O)C(=O)N2CCCC[C@H]2C(=O)O[C@H]([C@H](C)C[C@@H]2CC[C@@H](OCCO)[C@H](OC)C2)CC(=O)[C@H](C)/C=C(\C)[C@@H](O)[C@@H](OC)C(=O)[C@H](C)C[C@H](C)/C=C/C=C/C=C/1C [Everolimus] + CCNC(=O)c1noc(-c2cc(C(C)C)c(O)cc2O)c1-c1ccc(CN2CCOCC2)cc1 [Luminespib] (partner 0.01 µM)
In short: as §1

[3] = compound: CO[C@H]1C[C@@H]2CC[C@@H](C)[C@@](O)(O2)C(=O)C(=O)N2CCCC[C@H]2C(=O)O[C@H]([C@H](C)C[C@@H]2CC[C@@H](OCCO)[C@H](OC)C2)CC(=O)[C@H](C)/C=C(\C)[C@@H](O)[C@@H](OC)C(=O)[C@H](C)C[C@H](C)/C=C/C=C/C=C/1C [Everolimus] + CS(=O)(=O)N1CCN(Cc2cc3nc(-c4cccc5[nH]ncc45)nc(N4CCOCC4)c3s2)CC1 [Pictilisib] (partner 1 µM)
In short: as §1

[4] = compound: CO[C@H]1C[C@@H]2CC[C@@H](C)[C@@](O)(O2)C(=O)C(=O)N2CCCC[C@H]2C(=O)O[C@H]([C@H](C)C[C@@H]2CC[C@@H](OCCO)[C@H](OC)C2)CC(=O)[C@H](C)/C=C(\C)[C@@H](O)[C@@H](OC)C(=O)[C@H](C)C[C@H](C)/C=C/C=C/C=C/1C [Everolimus] + CC(=O)c1c(C)c2cnc(Nc3ccc(N4CCNCC4)cn3)nc2n(C2CCCC2)c1=O [Palbociclib] (partner 0.5 µM)
In short: as §1

| Cell Line | relative viability ([1]; first compound 0.01 µM) | relative viability ([1]; first compound 0.03162 µM) | relative viability ([1]; first compound 0.1 µM) | relative viability ([1]; first compound 0.3162 µM) | relative viability ([1]; first compound 1 µM) | relative viability ([2]; first compound 0.01 µM) | relative viability ([2]; first compound 0.03162 µM) | relative viability ([2]; first compound 0.1 µM) | relative viability ([2]; first compound 0.3162 µM) | relative viability ([2]; first compound 1 µM) | relative viability ([3]; first compound 0.01 µM) | relative viability ([3]; first compound 0.03162 µM) | relative viability ([3]; first compound 0.1 µM) | relative viability ([3]; first compound 0.3162 µM) | relative viability ([3]; first compound 1 µM) | relative viability ([4]; first compound 0.01 µM) | relative viability ([4]; first compound 0.03162 µM) | relative viability ([4]; first compound 0.1 µM) | relative viability ([4]; first compound 0.3162 µM) | relative viability ([4]; first compound 1 µM) |
| --- | --- | --- | --- | --- | --- | --- | --- | --- | --- | --- | --- | --- | --- | --- | --- | --- | --- | --- | --- | --- |
| PC-14 | 0.567 | 0.482 | 0.418 | 0.455 | 0.455 | 0.175 | 0.171 | 0.145 | 0.171 | 0.191 | 0.411 | 0.191 | 0.239 | 0.21 | 0.342 | 0.43 | 0.368 | 0.336 | 0.301 | 0.295 |
| SK-MES-1 | 0.398 | 0.512 | 0.499 | 0.414 | 0.483 | 0.347 | 0.383 | 0.329 | 0.281 | 0.331 | 0.281 | 0.243 | 0.265 | 0.236 | 0.215 | 0.239 | 0.264 | 0.258 | 0.273 | 0.243 |
| NCI-H727 | 0.425 | 0.392 | 0.467 | 0.345 | 0.444 | 0.47 | 0.372 |  | 0.345 | 0.365 | 0.268 | 0.274 | 0.309 | 0.239 | 0.275 | 0.642 | 0.529 | 0.725 | 0.613 | 0.643 |
| NCI-H1355 | 0.281 | 0.258 | 0.231 | 0.299 | 0.241 | 0.302 | 0.33 | 0.268 | 0.258 | 0.265 | 0.251 | 0.238 | 0.181 | 0.265 | 0.275 | 0.229 | 0.233 | 0.207 | 0.213 | 0.21 |
